Results on four molecules are retold here after patent US20140235616A1, “PYRAZOLOQUINOLINONE DERIVATIVES, PREPARATION THEREOF AND THERAPEUTIC USE THEREOF” (SANOFI, priority 2011, published 2014).

Test [1] deals with T1, human MetAP2 (Homo sapiens, UniProt P50579).
T1 construct: made in house; host or cells: Sf9 insect cells (baculovirus)
Briefly: MetAP2 enzymatic screening test (isolated enzyme, Met-Pro-Arg-pNa substrate, absorbance at 405 nm). Type of test: biochemical. As to conditions: read-out: % inhibition hMETAP2 at 100 nM. The protocol: The compounds according to the invention underwent biochemical studies in order to determine their capacity to inhibit the enzyme methionine-aminopeptidase2 (enzymatic test on isolated enzyme).
MetAP2 Enzymatic Screening Test
For the enzymatic test, human MetAP2 protein was obtained from a culture supernatant of insect cells (sf9) infected with MetAP2 recombinant baculovirus.
Before performing the experiment, dialysis of the MetAP2 supernatant is performed over 24 hours at 4° C. in a buffer (10 mM Hepes, 100 mM KCl, 10% glycerol, pH 7.4) in the presence of EDTA (1 mM) over the first 12 hours.
The dialysis supernatant is recovered and manganese, used as cofactor, is added to a final concentration of 300 μM.
The enzymatic test is a test in two steps.
Consequently, the second step consists in reacting the peptides cleaved in the preceding step with a second peptidase in order to release the chromophore.

Test [2] concerns HUVEC cells. The experiment in a line: Test of in vitro proliferation of HUVEC cells induced with FGF-2. As to conditions: Homo sapiens, read-out: HUVEC Proliferation IC50 (M).
Experimental: Test of In Vitro Proliferation of HUVEC Cells Induced with Fibroblast Growth Factor 2 (FGF-2).
After incubation for 48 hours, the medium is aspirated and replaced with the deprivation medium RPMI1640 mentioned previously. A second stimulation is then performed. The cells are again incubated at 37° C. in the presence of CO2. After incubation for 72 hours, the medium is again aspirated and 100 μl of Cell Titer-GLO™ Luminescent Cell Viability Assay (Promega, G7571) are added over 10 minutes. The amount of ATP present in the cells, measured using a luminometer, is proportional to the number cells per well corresponding to the cell proliferation.

By inhibition is commonly meant the relative decrease from the control value, in per cent.

T1 sequence (P50579 whole entry): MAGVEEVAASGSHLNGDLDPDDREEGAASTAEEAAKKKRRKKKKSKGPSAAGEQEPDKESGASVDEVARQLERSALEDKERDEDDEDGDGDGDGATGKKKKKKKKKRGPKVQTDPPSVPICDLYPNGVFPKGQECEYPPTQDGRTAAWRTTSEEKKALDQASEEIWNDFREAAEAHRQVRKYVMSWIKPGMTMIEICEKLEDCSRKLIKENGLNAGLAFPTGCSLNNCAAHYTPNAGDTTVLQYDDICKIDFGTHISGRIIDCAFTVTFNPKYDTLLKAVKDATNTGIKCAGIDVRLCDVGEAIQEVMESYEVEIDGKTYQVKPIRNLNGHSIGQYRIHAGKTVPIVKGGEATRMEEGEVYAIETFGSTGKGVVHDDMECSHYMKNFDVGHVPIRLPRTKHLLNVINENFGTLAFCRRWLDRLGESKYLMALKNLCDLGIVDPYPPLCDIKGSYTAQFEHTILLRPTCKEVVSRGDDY

As for `O=c1c2cn[nH]c2c2ccc(-c3ccccc3F)cc2n1CC(F)(F)F` [Compound 3, 7-(2-fluorophenyl)-5-(2,2,2-trifluoroethyl)-1,5-dihydro-4H-pyrazolo[4,3-c]quinolin-4-one], the inhibition at 0.1 µM in test [1] came out at 34%. Further, the IC50 in test [2] was found to be 6.6e-07 M.

As to `Cc1cc(-c2ccc3c4[nH]ncc4c(=O)n(CC(F)(F)F)c3c2)ccn1` [Compound 186, 7-(2-methylpyrid-4-yl)-5-(2,2,2-trifluoroethyl)-1,5-dihydro-4H-pyrazolo[4,3-c]quinolin-4-one], the inhibition at 0.1 µM in test [1] is 43%. Moreover, in test [2], the IC50 stood at 3.6e-07 M.

Take `COC(=O)c1ccc(-c2ccc3c4[nH]ncc4c(=O)n(CC(F)(F)F)c3c2)c(N)c1` [Compound 55, methyl 3-amino-4-[4-oxo-5-(2,2,2-trifluoroethyl)-4,5-dihydro-1H-pyrazolo[4,3-c]quinolin-7-yl]benzoate]: the inhibition at 0.1 µM in test [1] came out at 40%.

Consider `O=c1c2cn[nH]c2c2ccc(-c3ccc(F)cn3)cc2n1CC(F)(F)F` [Compound 165, 7-(5-fluoropyrid-2-yl)-5-(2,2,2-trifluoroethyl)-1,5-dihydro-4H-pyrazolo[4,3-c]quinolin-4-one], for which the inhibition at 0.1 µM in test [1] turned out to be 37%.
